# Data reported in publication PMC7394586 (OncoTargets and therapy, 2020).
# What was measured:
# MHCC97-H cells [1] = experiment: MTT cell survival assay; assay type: cell-based, human; conditions: for change of IC50 on MHCC97-H cells on overexpression of miR-3609: miR-3609 overexpression versus control
# [2] = system: PDC No. 2 subcutaneous growth; experiment: Antitumor effect in vivo, subcutaneous tumor model; design: species or system nude mice; conditions: oral administration every 2 days, 10 treatments
# [3] = system: MHCC97-H subcutaneous tumors; experiment: Tumor-based clearance of sorafenib in subcutaneous tumors; assay type: in vivo, nude mice; conditions: Control, sorafenib injected into subcutaneous tumors
# [4] = system: PDC No. 3 subcutaneous growth; experiment: Antitumor effect in vivo, subcutaneous tumor model; design: species or system nude mice; conditions: oral administration every 2 days, 10 treatments
# MHCC97-H cells [5] = experiment: Cell-based metabolism/clearance of sorafenib; assay type: in vitro ADME, human; conditions: LC-MS/MS, cultured HCC cells
# [6] = Cell-based metabolism/clearance of sorafenib; assay type: in vitro ADME, human; conditions: human, MHCC97-H cells, Half-Life Time (t1/2, h), MHCC97-H, Cell-based, 1 μmol/L sorafenib
# [7] = system: PDC No. 1 subcutaneous growth; experiment: Antitumor effect in vivo, subcutaneous tumor model; design: species or system nude mice; conditions: oral administration every 2 days, 10 treatments
# [8] = system: PDC No. 1 subcutaneous tumors; experiment: Tumor-based clearance of sorafenib in subcutaneous tumors; assay type: in vivo, nude mice; conditions: PDC No. 1, Tumor-based, Control; sorafenib injected into subcutaneous tumors
# [9] = system: PDC No. 5 subcutaneous growth; experiment: Antitumor effect in vivo, subcutaneous tumor model; design: species or system nude mice; conditions: oral administration every 2 days, 10 treatments
# [10] = system: PDC No. 4 subcutaneous growth; experiment: Antitumor effect in vivo, subcutaneous tumor model; design: species or system nude mice; conditions: oral administration every 2 days, 10 treatments
# [11] = system: MHCC97-H subcutaneous growth; experiment: Antitumor effect in vivo, subcutaneous tumor model; design: species or system nude mice; conditions: for IC50 values of Soarfenib on Subcutaneous Tumor Weights: MHCC97-H, oral administration every 2 days, 10 treatments
# [12] = Clinical outcome of advanced HCC patients who received sorafenib treatment; assay type: in vivo, human
# [13] = system: PDC No. 3 subcutaneous tumors; experiment: Tumor-based clearance of sorafenib in subcutaneous tumors; assay type: in vivo, nude mice; conditions: PDC No. 3, Tumor-based, miR-3609; sorafenib injected into subcutaneous tumors
# [14] = patients with EPAS-1 mRNA expression High (n = 26)
# [15] = patients with EPAS-1 mRNA expression Low (n = 26)
# [16] = patients with miR-3609 expression High (n = 26)
# [17] = patients with miR-3609 expression Low (n = 26)
smiles,measurement,setting,value
COc1cc2c(Oc3ccc4[nH]c(C)cc4c3F)ccnc2cc1OCC1(N)CC1 [anlotinib],change of IC50 on MHCC97-H cells on overexpression of miR-3609,MHCC97-H cells [1],decreased
N#CC1(c2ccc(NC(=O)c3cccnc3NCc3ccncc3)cc2)CCCC1 [apatinib],change of IC50 on MHCC97-H cells on overexpression of miR-3609,MHCC97-H cells [1],decreased
COc1cc2nccc(Oc3ccc(NC(=O)NC4CC4)c(Cl)c3)c2cc1C(N)=O [lenvatinib],change of IC50 on MHCC97-H cells on overexpression of miR-3609,MHCC97-H cells [1],decreased
CNC(=O)c1cc(Oc2ccc(NC(=O)Nc3ccc(Cl)c(C(F)(F)F)c3)c(F)c2)ccn1 [regorafenib],change of IC50 on MHCC97-H cells on overexpression of miR-3609,MHCC97-H cells [1],decreased
CNC(=O)c1cc(Oc2ccc(NC(=O)Nc3ccc(Cl)c(C(F)(F)F)c3)cc2)ccn1 [sorafenib],IC50 values of Soarfenib on Subcutaneous Tumor Weights,"[2]; PDC No. 2, Control",1.77 ± 0.20 mg/kg
same,IC50 values of Soarfenib on Subcutaneous Tumor Weights,"[2]; PDC No. 2, miR-3609 + EPAS-1^Mut",2.20 ± 0.45 mg/kg
same,IC50 values of Soarfenib on Subcutaneous Tumor Weights,"[2]; PDC No. 2, miR-3609",0.48 ± 0.10 mg/kg
same,"Half-Life Time (t1/2, h)",[3],30.73 ± 6.46 h
same,IC50 values of Soarfenib on Subcutaneous Tumor Weights,"[4]; PDC No. 3, Control",1.99 ± 0.54 mg/kg
same,IC50 values of Soarfenib on Subcutaneous Tumor Weights,"[4]; PDC No. 3, miR-3609 + EPAS-1^Mut",1.81 ± 0.41 mg/kg
same,IC50 values of Soarfenib on Subcutaneous Tumor Weights,"[4]; PDC No. 3, miR-3609",0.30 ± 0.04 mg/kg
same,metabolism and clearance in HCC cells,MHCC97-H cells [5],gradually metabolized and cleared
same,half-life at 1 μmol/L,[6]; Control,18.6 ± 2.46 h
same,half-life at 1 μmol/L,[6]; miR-3609 + EPAS-1^Mut,18 ± 3.18 h
same,half-life at 1 μmol/L,[6]; miR-3609,37.1 ± 6.12 h
same,IC50 values of Soarfenib on Subcutaneous Tumor Weights,"[7]; PDC No. 1, Control",~3 mg/kg
same,IC50 values of Soarfenib on Subcutaneous Tumor Weights,"[7]; PDC No. 1, miR-3609 + EPAS-1^Mut",>3 mg/kg
same,IC50 values of Soarfenib on Subcutaneous Tumor Weights,"[7]; PDC No. 1, miR-3609",0.87 ± 0.39 mg/kg
same,survival of MHCC97-H cells,MHCC97-H cells [1]; 0.01-10 μmol/L,inhibited the survival of MHCC97-H cells in a dose-dependent manner
same,change of IC50 on MHCC97-H cells on overexpression of miR-3609,MHCC97-H cells [1],decreased
same,"Half-Life Time (t1/2, h)",[8],26.32 ± 6.91 h
same,IC50 values of Soarfenib on Subcutaneous Tumor Weights,"[9]; PDC No. 5, Control",2.88 ± 0.39 mg/kg
same,IC50 values of Soarfenib on Subcutaneous Tumor Weights,"[9]; PDC No. 5, miR-3609 + EPAS-1^Mut",2.32 ± 0.69 mg/kg
same,IC50 values of Soarfenib on Subcutaneous Tumor Weights,"[9]; PDC No. 5, miR-3609",0.66 ± 0.21 mg/kg
same,IC50 values of Soarfenib on Subcutaneous Tumor Weights,"[10]; PDC No. 4, Control",2.70 ± 0.70 mg/kg
same,IC50 values of Soarfenib on Subcutaneous Tumor Weights,"[10]; PDC No. 4, miR-3609 + EPAS-1^Mut",2.76 ± 0.62 mg/kg
same,IC50 values of Soarfenib on Subcutaneous Tumor Weights,"[10]; PDC No. 4, miR-3609",0.95 ± 0.60 mg/kg
same,IC50 values of Soarfenib on Subcutaneous Tumor Weights,[11]; Control,2.25 ± 0.44 mg/kg
same,IC50 values of Soarfenib on Subcutaneous Tumor Weights,[11]; miR-3609 + EPAS-1^Mut,2.51 ± 0.52 mg/kg
same,IC50 values of Soarfenib on Subcutaneous Tumor Weights,[11]; miR-3609,0.15 ± 0.02 mg/kg
same,subcutaneous growth of MHCC97-H cells,"[11]; nude mice, oral administration",inhibited the subcutaneous growth of MHCC97-H cells in a dose-dependent manner
same,OS (overall survival),[12]; [14],11.0 M
same,TTP (time to progress),[12]; [14],8.0 M
same,OS (overall survival),[12]; [15],16.0 M
same,TTP (time to progress),[12]; [15],13.0 M
same,OS (overall survival),[12]; [16],15.0 M
same,TTP (time to progress),[12]; [16],12.0 M
same,OS (overall survival),[12]; [17],12.0 M
same,TTP (time to progress),[12]; [17],8.0 M
same,"Half-Life Time (t1/2, h)",[13],50.73 ± 4.02 h
